The subject of one test is duplex DNA. The settings on record: published data; cited from earlier work.
The test system of the next test is calf thymus DNA (Z-DNA). The test is described as follows: Permanganate oxidation of calf thymus Z-DNA (NaCl) incubated with intercalators. Conditions: for Level of oxidation (induced by chemical) Net A420 nm: Z-DNA (NaCl), Expt minus Control, 2 min-1 h; for Level of oxidation (induced by chemical) Net A420 nm / ΔA420 nm (2 min-1 h) (Expt): 35° C.; for ΔA420 nm (2 min-1 h) (Expt): calf thymus DNA + NaCl + intercalator 6.3 nmol + KMnO4. Here is the method:
The intercalator (10 μl, […]) was incubated with the solution containing calf thymus DNA (5 μl, 8.27 μg) and NaCl (600 μl, 5M NaCl solution) in water (355 μl) at 40° C. for 1 h. The reaction mixture was treated with KMnO4 (30μ of 10 mM solution) and maintained at 35° C. for 60 min. The absorbance at 420 nm was obtained at 2 min and 60 min by Cary 300 spectrophotometer (Varian Inc.). The level of oxidation was based on the absorbance at A420 nm of the experiment and control (without DNA) experiments as described in the experimental section. Four intercalators (with published data on unwinding degree) were used in the experiment: doxorubicin (10°), daunomycin (12°), 9-aminoacridine (17°) and ethidium bromide (28°); and
Due to limited information about the degree of unwinding of intercalators, only four intercalators with different degree of unwinding were employed in the experiment: doxorubicin (10°), daunorubicin (12°), 9-aminoacridine (17°) and ethidium bromide (28°). The Z-DNA samples were mixed in equal amounts of intercalators and the reactions were carried out under identical conditions. Calf thymus DNA (5 μl, 8.27 μg) was incubated with NaCl (600 μl, SM NaCl solution), the DNA binding agent or intercalator (10 μl, 6.3 nmol) in distilled H2O (355 μl). 4 non-sequence specific intercalators were used in the model study: doxorubicin, daunorubicin, 9-aminoacridine and ethidium bromide. The reaction mixture was gently mixed on shaker at 40° C. for 1 h. After incubation time, KMnO4 (30 μl) was added to the reaction mixture and the resulting mixture was transferred to the quartz cuvette and the absorbance (420 nm) was obtained at 35° C. for 2- and 60-min time-points. The level of oxidation induced by intercalator is based on the net absorbance and calculated as follows:
Net A420 nm=[A420 nm of the Expt (60 min)−A420 nm of the Expt (2 min)]−[A420 nm of the Control (60 min)−A420 nm of the Control (2 min)]
Where Net A420 nm represents the level of oxidation of the DNA-chemical adduct.
The Expt=calf thymus DNA+NaCl+DNA binding agent+KMnO4
The Control=DNA binding agent+KMnO4.
The control experiment (without DNA binding agent) was treated under identical conditions as described above.

Regarding `Nc1c2ccccc2nc2ccccc12` [9-aminoacridine], in the test with duplex DNA, the degree of unwinding was 17 °. Moreover, in the test with calf thymus DNA (Z-DNA), the “Level of oxidation (induced by chemical) Net A420 nm” value (“Level of oxidation” for short) is listed as 0.0726 arbitrary unit and the “ΔA420 nm (2 min-1 h) (Expt)” value is listed as 0.1327.
For the compound `COc1cccc2c1C(=O)c1c(O)c3c(c(O)c1C2=O)C[C@@](O)(C(C)=O)C[C@@H]3O[C@H]1C[C@H](N)[C@H](O)[C@H](C)O1` [daunorubicin], in the test with duplex DNA, the degree of unwinding is reported as 12 °. Besides, in the test on calf thymus DNA (Z-DNA), the “Level of oxidation” value was 0.0957 arbitrary unit and the “ΔA420 nm (2 min-1 h) (Expt)” value turned out to be 0.1670.
Consider `COc1cccc2c1C(=O)c1c(O)c3c(c(O)c1C2=O)C[C@@](O)(C(=O)CO)C[C@@H]3O[C@H]1C[C@H](N)[C@H](O)[C@H](C)O1` [doxorubicin], for which the degree of unwinding in the test with duplex DNA was 10 °. Further, in the test with calf thymus DNA (Z-DNA), the “Level of oxidation” value is recorded as 0.1029 arbitrary unit and the “ΔA420 nm (2 min-1 h) (Expt)” value amounted to 0.1427. Moreover, in the test on calf thymus DNA (Z-DNA) (Z-DNA incubated with intercalator, ranking among the four intercalators), the “rate of permanganate oxidation (kinetic data)” value is listed as “fastest”.

The record behind these values is patent US20040234992A1, “Method of detection of conformational change in a nucleic acid duplex by treatment with oxidising or reactive agent as a result of exposure to environmental or chemical conditions” (priority 2001, published 2004).
